# Reference: paper PMC5323132, “Targeting prohibitins induces apoptosis in acute myeloid leukemia cells” (Oncotarget, 2016)
# Several values for one entry are separate records, joined by “and”; a condition that tells them apart may be missing. Identical values can stand only once. Like-named read-outs stand apart in the source and are kept apart here.
# Tests used:
# U-937 cells [1] = experiment: Viability by phosphatidylserine exposure (annexin V) flow cytometry; assay type: cell-based, human; conditions: for viability at 5 µM: Homo sapiens, read-out: Viability (%) (annexin V negative cells)
# Experimental: (§1) Cell viability was assessed by phosphatidylserine exposure and measured as the percentage of annexin V-negative cell population. […] Occasionally, 3.75 μL PI were added after annexin V staining and immediately before acquisition to measure the percentage of annexin V^−/PI^− live cells. In AML samples with infiltration lower than 80% blasts, double staining with anti-CD33 or anti-CD34, and annexin V was performed. In brief, cells were washed in ABB and incubated in 50 μL ABB containing 0.5 μL anti-CD33 or anti-CD34 for 10 min in the dark and thereafter stained with annexin V, as previously mentioned. Cells were acquired using the FACSCanto^TM II flow cytometer (Becton Dickinson, Franklin Lakes, NJ, USA) and data of bulk leukemic/normal and CD33^+- or CD34^+-gated leukemic/normal progenitor cells were analyzed using the FACSDiva^TM software (Becton Dickinson). […] Patient samples were considered as “sensitive” to fluorizoline when cell viability was lower than 80% after incubation with 20 μM during 48 hours.
# [2] = tested on: CD34+ population of AML specimens; experiment: Ex vivo viability (annexin V) on CD34+ population of AML specimens; assay type: cell-based, human; conditions: six AML specimens, 48 hours
# Experimental: (§2) Cell viability was assessed by phosphatidylserine exposure and measured as the percentage of annexin V-negative cell population. After incubation of 1.25 × 10^5 cells with the indicated factors and times, cells were then washed in annexin-binding buffer (ABB) and incubated in 100 μL ABB with 0.5 μL annexin V-APC for 10 min in the dark and then diluted with ABB to a final volume of 150 μL. Occasionally, 3.75 μL PI were added after annexin V staining and immediately before acquisition to measure the percentage of annexin V^−/PI^− live cells. In AML samples with infiltration lower than 80% blasts, double staining with anti-CD33 or anti-CD34, and annexin V was performed. In brief, cells were washed in ABB and incubated in 50 μL ABB containing 0.5 μL anti-CD33 or anti-CD34 for 10 min in the dark and thereafter stained with annexin V, as previously mentioned. Cells were acquired using the FACSCanto^TM II flow cytometer (Becton Dickinson, Franklin Lakes, NJ, USA) and data of bulk leukemic/normal and CD33^+- or CD34^+-gated leukemic/normal progenitor cells were analyzed using the FACSDiva^TM software (Becton Dickinson). Half-maximal lethal dose (LD50) was defined as the concentration of drug required to reduce the cell viability by 50%. Patient samples were considered as “sensitive” to fluorizoline when cell viability was lower than 80% after incubation with 20 μM during 48 hours.
# [3] = tested on: primary AML cells (BMMNC or PBMNC from AML patients); experiment: Ex vivo viability (annexin V) of primary AML cells; assay type: cell-based, human
# Experimental: PBMNC and BMMNC were isolated by centrifugation on a Biocoll (Biochrom AG, Berlin, Germany) gradient and cryopreserved in liquid nitrogen in the presence of 10% dimethyl sulfoxide (DMSO) (Sigma-Aldrich Inc, St Louis, MO, USA).
# as §1
# HL-60 cells [4] = experiment: MTT cell viability assay; assay type: cell-based; conditions: Homo sapiens, read-out: IC50 (half-maximal inhibitory concentration), MTT
# Experimental: (§3) HL-60 and U-937 cells (1.25 × 10^5 cells/well) were incubated in the absence or in the presence of the indicated factors, in a final volume of 250 μL. After 24 or 48 hours, 25 μL MTT reagent (prepared at 5 mg/mL in phosphate-buffered saline (PBS)) was added to each well for an additional 3 hours. The blue MTT formazan precipitate was dissolved in 250 μL isopropanol:1 M HCl (24:1). Then, 100 μL of this cell lysate were plated in a 96-well plate in triplicate and the absorbance values at 570 nm were measured on a multiwell plate reader. The half-maximal inhibitory concentration (IC50) was defined as the concentration of drug required to reduce the MTT metabolization ability by 50%.
# U-937 cells [5] = experiment: MTT cell viability assay; assay type: cell-based; conditions: Homo sapiens, read-out: IC50 (half-maximal inhibitory concentration), MTT
# Experimental: as §3
# [6] = tested on: CD34- population of AML specimens; experiment: Ex vivo viability (annexin V) on CD34- population of AML specimens; assay type: cell-based, human; conditions: six AML specimens, 48 hours
# Experimental: as §2
# U-937 cells [7] = experiment: Methylcellulose colony-forming unit (CFU) assay; assay type: cell-based, human; conditions: pretreated 24 hours, n = 4
# Experimental: (§4) The analysis of the clonogenic capacity after exposition to the fluorizoline was performed using a methylcellulose-based medium with recombinant cytokines and erythropoietin (EPO) for human hematopoietic progenitor cells (MethoCult^TM H4034 Optimum, StemCell Technologies). U-937 cells and primary AML cells were pretreated for 24 hours with the indicated factors, as previously mentioned. Then, cells (1 × 10^3 U-937 cells or 50 × 10^3 primary AML cells) were diluted in 100 μL serum-free IMDM with 25 mM HEPES, homogeneously mixed with 1 mL MethoCult^TM medium, seeded in duplicate cultures and maintained at 37°C with 5% CO2 in air in a humidified atmosphere. Colonies (CFU) were screened based on morphology and cellularity at day 10 (U-937 cells) or day 14 (primary AML cells) using an inverted microscope. A colony was defined as a cluster of > 40 cells.
# primary AML cells = experiment: Methylcellulose colony-forming unit (CFU) assay; assay type: cell-based, human; conditions: pretreated 24 hours, n = 5
# Experimental: as §4
# NOXA mRNA in U-937 cells = experiment: RT-MLPA apoptosis-related gene expression; assay type: cell-based; conditions: Homo sapiens
# Experimental: RNA was isolated from cultured 3–5 × 10^6 cells by the RNeasy Micro kit (Qiagen GmbH, Hilden, Germany) according to the manufacturer's protocol. RNA was analyzed by RT-MLPA using SALSA MLPA KIT R011-C1 Apoptosis mRNA from MRC-Holland (Amsterdam, The Netherlands) for the simultaneous detection of 40 messenger RNA molecules, including apoptosis-related genes. In brief, RNA samples (200 ng total RNA) were first reverse transcribed using a gene-specific primer mix. The resulting cDNA was annealed overnight at 60°C to the RT-MLPA probe mix. Annealed oligonucleotides were ligated by adding Ligase-65 (MRC-Holland) and incubated at 54°C for 15 min. Ligation products were amplified by PCR (35 cycles, 30 s at 95°C; 30 s at 60°C, and 1 min at 72°C) with one unlabeled and one FAM-labeled primer. The final PCR fragments amplified were separated by capillary electrophoresis on a 96-capillary ABI-Prism® 3730XL Genetic Analyzer (Applied Biosystems/Hitachi, Carlsbad, CA, USA). Peak area and height were measured using GeneMapper^TM v3.0 analysis software (Applied Biosystems). Ratios of individual peaks relative to the sum of all peaks were calculated, resulting in the relative abundance of mRNAs of the genes of interest.
# [8] = Ex vivo viability (annexin V) of normal hematologic cells; assay type: cell-based, human; conditions: human, normal BMMNC and normal hematopoietic stem cells (PBSC); normal cells, 20 μM, 24 hours; read-out: viable cells (percentage of viability of untreated cells)
# Experimental: (§5) Normal BMMNC was obtained from apheresis-collected granulocyte colony-stimulating factor (G-CSF)-mobilized progenitor-cell from PB of 3 healthy donors were used as a source of normal CD34^+ cells.
# as §1
# [9] = tested on: normal BMMNC and normal hematopoietic stem cells (PBSC); experiment: as above; assay type: cell-based, human; conditions: for median LD50: normal cells
# Experimental: as §5, §1
# CD11b in U-937 cells = experiment: Differentiation assay, CD11b surface expression by flow cytometry; assay type: cell-based; conditions: Homo sapiens, 48 hours, read-out: CD11b surface marker expression, fold induction compared to DMSO-treated cells
# Experimental: (§6) Myeloid maturation induction was assessed by cell surface marker expression analysis. U-937 and primary AML cells were treated as indicated for cell viability assays. After 24 and 48 hours of incubation cells were collected and stained in 50 μL PBS buffer containing 2 mM EDTA and 0.5% bovine serum albumin (BSA) with 0.5 μL anti-human CD11b for 10 min in the dark and then diluted with buffer to a final volume of 150 μL. In parallel, cell viability was analyzed by annexin V staining in separated tubes. Surface expression of the antigen was analyzed by flow cytometry. In these experiments vehicle-treated cells were also included in order to discard DMSO-induced myeloid differentiation.
# [10] = tested on: CD11b in de novo AML primary samples; experiment: as above; assay type: cell-based; conditions: Homo sapiens, 48 hours, read-out: CD11b surface marker expression, fold induction compared to DMSO-treated cells
# Experimental: as §6
# HL-60 cells [11] = experiment: Viability by phosphatidylserine exposure (annexin V) flow cytometry; assay type: cell-based, human; conditions: 48 hours
# Experimental: as §2
# [12] = Figure 5C, 24 h, fluorizoline 5 μM, Q-VD-OPh 20 μM pre-incubated 30 min
smiles,measurement,setting,value
"CC(C)[C@H](NC(=O)c1ccc2ccccc2n1)C(=O)N[C@@H](CC(=O)O)C(=O)COc1c(F)cccc1F [Q-VD-OPh, reference compound]",Viability (%) (annexin V negative cells),U-937 cells [1]; [12],95%
FC1(F)N=C(c2ccc(Cl)cc2)SC1(F)c1ccc(Cl)cc1 (centres unmarked) [fluorizoline],LD50,[2],4.5 ± 2.3 µM
same,median LD50,"[3]; 24 hours, sensitive patient samples (n = 15)",8.0 ± 1.7 µM
same,mean LD50,"[3]; 48 hours, n = 21",5.3 ± 0.8 µM
same,viability at 10 µM,"[3]; Homo sapiens, 2 h, Figure 6B, patient #14, 10 μM, 2 h, read-out: Viability (%) (annexin V negative cells)",95%
same,viability at 10 µM,"[3]; Homo sapiens, 4 h, Figure 6B, patient #14, 10 μM, 4 h, read-out: Viability (%) (annexin V negative cells)",92%
same,viability at 10 µM,"[3]; Homo sapiens, 8 h, Figure 6B, patient #14, 10 μM, 8 h, read-out: Viability (%) (annexin V negative cells)",87%
same,viability at 10 µM,"[3]; Homo sapiens, 8 h, Figure 6C, patient #13, 10 μM, 8 h, read-out: Viability (%) (annexin V negative cells)",35%
same,viability at 10 µM,"[3]; Homo sapiens, 8 h, Figure 6C, patient #16, 10 μM, 8 h, read-out: Viability (%) (annexin V negative cells)",50%
same,viability at 10 µM,"[3]; Homo sapiens, 8 h, Figure 6C, patient #18, 10 μM, 8 h, read-out: Viability (%) (annexin V negative cells)",80%
same,viability at 10 µM,"[3]; Homo sapiens, 8 h, Figure 6C, patient #20, 10 μM, 8 h, read-out: Viability (%) (annexin V negative cells)",43%
same,viability at 2.5 µM,"[3]; Homo sapiens, 8 h, Figure 6C, patient #21, 2.5 μM, 8 h, read-out: Viability (%) (annexin V negative cells)",37%
same,viability at 10 µM,"[3]; Homo sapiens, 12 h, Figure 6B, patient #14, 10 μM, 12 h, read-out: Viability (%) (annexin V negative cells)",81%
same,viability at 10 µM,"[3]; Homo sapiens, 24 h, 10 μM, 24 hours, n = 20 AML samples, untreated 75.8% ± 2.9%, read-out: cell viability (annexin V negative cells)",35.5%
same,viability at 10 µM,"[3]; Homo sapiens, Figure 6D, patient #20, 24 h, fluorizoline 10 μM, Q-VD-OPh 20 μM pre-incubated 30 min, read-out: Viability (%) (annexin V negative cells)",25%
same,median LD50,"[3]; samples at relapse (n = 6), 24 hours",10.3 ± 4.0 µM
same,median LD50,"[3]; samples at relapse (n = 6), 48 hours",5.4 ± 1.6 µM
same,IC50,"HL-60 cells [4]; HL-60, 24 h",8 µM
same,IC50,"HL-60 cells [4]; HL-60, 48 h",6 µM
same,IC50,"U-937 cells [5]; U-937, 24 h",7 µM
same,IC50,"U-937 cells [5]; U-937, 48 h",5 µM
same,annexin V-/PI+ population,"U-937 cells [1]; 10 µM fluorizoline, 24 h, annexin V/PI double staining",less than 6%
same,"mean LD50, annexin V",U-937 cells [1]; 24 hours,above 40 μM
same,"mean LD50, annexin V",U-937 cells [1]; 48 hours,14 µM
same,viability at 5 µM,"U-937 cells [1]; Figure 5B, 5 μM, 4 h",93%
same,viability at 5 µM,"U-937 cells [1]; Figure 5B, 5 μM, 8 h",92%
same,viability at 5 µM,"U-937 cells [1]; Figure 5B, 5 μM, 24 h",64%
same,viability at 5 µM,U-937 cells [1]; [12],63%
same,LD50,[6],higher than 20 μM
same,mean CFU respect to untreated cells,U-937 cells [7]; 5 μM,49.9 ± 5%
same,mean CFU respect to untreated cells,U-937 cells [7]; 10 μM,1.9 ± 1%
same,mean CFU respect to untreated cells,primary AML cells; 2.5 μM,39.9 ± 5%
same,mean CFU respect to untreated cells,primary AML cells; 10 μM,5.3 ± 1.5%
same,fold induction at 10 µM,NOXA mRNA in U-937 cells; 4 hours,3.5
same,fold induction at 10 µM,NOXA mRNA in U-937 cells; 8 hours,6.6
same,fold induction at 10 µM,NOXA mRNA in U-937 cells; 24 hours,3.1
same,"viability at 24 h, 20 µM",[8],68.6%
same,LD50(μM) 24 h,"[9]; Donor No. 1-9, 24 h",> 20 µM and 16 µM
same,LD50(μM) 48 h,"[9]; Donor No. 1-9, 48 h",> 20 µM and 8 µM and 13 µM
same,median LD50,[9]; 24 hours,above 20 μM
same,median LD50,[9]; 48 hours,above 20 μM
same,fold induction at 40 µM,CD11b in U-937 cells,12.1
same,fold induction at 20 µM,[10],1.5
same,"LD50 (half-maximal lethal dose), annexin V",HL-60 cells [11],40 µM
